Patent US8163509B2, “Biological markers predictive of anti-cancer response to insulin-like growth factor-1 receptor kinase inhibitors” (The Regents of the University of Colorado, A Body Corporate, priority 2008, dated 2012)

Assays:
[1] = tested on: Colo320 CRC cell line; assay: SRB proliferation assay, 72 h; assay type: cell-based; details: Homo sapiens, COLO 320, 0.05-5 μM, read-out: IC50, growth inhibition by PQIP (SRB)
Procedure: Cell Lines and Culture. […] human colon cancer cell lines, were obtained from American Type Culture Collection (Manassas, Va.). Cells were grown in RPMI medium supplemented with 10% fetal bovine serum, 1% non-essential amino acids, 1% penicillin/streptomycin and were maintained at 37° C. in an incubator under an atmosphere containing 5% CO2. The cells were routinely screened for the presence of mycoplasma (MycoAlert, Cambrex Bio Science, Baltimore, Md.) and were exposed to PQIP when they reached approximately 70% confluence.
The CRC cell lines were treated with a range of concentrations of PQIP (from 0.05-5 μM) for 72 hours.

[2] = tested on: HCT116 CRC cell line; assay: Gene expression analysis post PQIP exposure (gene array); assay type: cell-based, human; details: 400 nM PQIP, 72 hours
Procedure: (§1) Microarray Analysis: Cells were plated at 2×106 in 6-well plates 24 h prior to harvest. After 24 hours cells were rinsed twice with PBS, and RNA was prepared using a RNeasy Plus mini kit (Qiagen, Valencia, Calif.). RNA stabilization, isolation, and microarray sample labeling were carried out using standard methods for reverse transcription and one round of in vitro transcription. HG-U133 set microarrays were hybridized with 10 μg of cRNA and processed according to the protocols of the manufacturer (Affymetrix). Hybridization signals and detection calls were generated in BioConductor, using the germa and affy software packages. Microarray data was analyzed using BRB ArrayTools v3.2 developed by Dr. Richard Simon and Amy Peng Lam.
(§2) Gene Expression Analysis Post PQIP Exposure: In order to identify genes that are modulated following exposure to PQIP, 5 sensitive and 5 resistant CRC cell lines were treated with 400 nM PQIP for 72 hours, total RNA was purified, and gene array analysis was performed as described previously. The gene expression profiles following PQIP exposure were compared to the respective untreated profiles. To characterize changes in gene expression profile, one PQIP resistant (HCT116) and one PQIP sensitive (HT29) tumor cell type was examined, and caldesmon, metallothioneins, ALDH1A1, and MAP2K6 expression levels were analyzed.

[3] = tested on: HT29 CRC cell line; assay: as above; assay type: cell-based, human; details: 400 nM PQIP, 72 hours
Procedure: as §1, §2

[4] = tested on: Akt; assay: Immunoblotting, pathway activation; assay type: cell-based, human; details: PQIP 0.4 μmol/L 3 h, with or without IGF-2 stimulation
Procedure: (§3) Immunoprecipitation and Immunoblotting: HT29 and HCT116 CRC cell lines were seeded into 6-well plates, allowed to attach for 24 hours and serum starved overnight. Cells were then exposed to IGF-2 (100 ng/mL) for 10 minutes with or without a 3 hour PQIP (0.4 μmol/L) pretreatment. After treatment cells were rinsed with PBS and scraped into RIPA lysis buffer containing protease inhibitors, EDTA, NaF, and sodium orthovanadate. Total protein was quantified using the BioRad Dc Protein Assay (BioRad, Hercules, Calif.). Total protein (30 μg) was electrophoresed on a 4-20% gradient SDS-polyacrylimide gel then electrophoretically transferred to Immobilon-P (Millipore, Bedford, Mass.). Membranes were blocked for 1 hour in 5% non-fat dry milk (BioRad, Hercules, Calif.) in TBS-Tween (0.1%) prior to overnight incubation at 4° C. with the appropriate primary antibody. Blots were then washed 3×20 minutes in TBS-Tween (0.1%) and were incubated with the appropriate secondary anti-rabbit or anti-mouse IgG1 horseradish peroxidase-linked antibody at 1:20,000 (Jackson ImmunoResearch, West Grove, Pa.) for one hour at room temperature. After three additional washes, the blots were developed by Immobilon Western Chemiluminescent HRP substrate (Millipore, Billerica, Mass.). Anti-IGF1Rβ rabbit polyclonal (Cell Signaling Technology, Danvers, Mass.) was used for immunoprecipitation at a 1:50 dilution. The following primary antibodies were used for immunoblotting (all from Cell Signaling Technology, Danvers, Mass.). Anti-phosphorylated Akt (T308) rabbit polyclonal, anti-phosphorylated S6 ribosomal protein (S235/236) rabbit mAb, anti-phosphorylated p44/42 MAPK (Thr202/Tyr204) rabbit mAb, and anti-phosphorylated tyrosine mouse mAb at 1:1.000. Anti-Akt (pan) rabbit mAb, anti-S6 ribosomal protein rabbit mAb, anti-p44/42 MAP Kinase rabbit mAb, anti Pan-Actin rabbit polyclonal, anti-IGF1Rβ rabbit polyclonal, anti-PARP rabbit polyclonal, and anti-cyclin D1 rabbit polyclonal at 1:5000.
(§4) Effect of PQIP on receptor phosphorylation and pathway activation: Since PQIP is expected to inhibit autophosphorylation of IGF1R, we tested its ability to inhibit IGF-2 mediated activation of the receptor and pathway. One PQIP sensitive and one PQIP resistant CRC cell line were chosen for immunoprecipitation and immunoblotting analysis. Following 18 h serum starvation, HT29 and HCT116 CRC cell lines were stimulated or unstimulated for 10 minutes with 100 ng/mL of IGF-2 with or without a 3 h pre-exposure to PQIP (0.4 μmol/L).

[5] = tested on: S6 ribosomal protein; assay: Immunoblotting, pathway activation; assay type: cell-based, human; details: PQIP 0.4 μmol/L 3 h, with or without IGF-2 stimulation
Procedure: as §3, §4

[6] = tested on: p42/44 MAPK; assay: Immunoblotting, pathway activation; assay type: cell-based, human; details: PQIP 0.4 μmol/L 3 h pre-exposure, IGF-2 100 ng/mL 10 minutes
Procedure: as §3, §4

IC50 [1]: < 0.5 µM
Compound: CN1CCN([C@H]2C[C@@H](c3nc(-c4ccc5ccc(-c6ccccc6)nc5c4)c4c(N)nccn43)C2)CC1 [PQIP, cis-3-[3-(4-Methyl-piperazin-1-yl)-cyclobutyl]1-(2-phenyl-quinolin-7-yl)-imidazo[1,5-a]pyrazin-8-ylamine]
Fold change of post exposure PQIP to untreated, ALDH1A1 expression [2]: 2.3 fold
Fold change of post exposure PQIP to untreated, CALD1 expression [2]: 1.9 fold
Fold change of post exposure PQIP to untreated, MAP2K6 expression [2]: 0.7 fold
Fold change of post exposure PQIP to untreated, MT1E expression [2]: 1.2 fold
Fold change of post exposure PQIP to untreated, MT1F expression [2]: 1.6 fold
Fold change of post exposure PQIP to untreated, MT1G expression [2]: 1.1 fold
Fold change of post exposure PQIP to untreated, MT1H expression [2]: 1.8 fold
Fold change of post exposure PQIP to untreated, MT1M expression [2]: 1.5 fold
Fold change of post exposure PQIP to untreated, MT1X expression [2]: 2.0 fold
Fold change of post exposure PQIP to untreated, MT2A expression [2]: 1.0 fold
Fold change of post exposure PQIP to untreated, ALDH1A1 expression [3]: 0.56 fold
Fold change of post exposure PQIP to untreated, CALD1 expression [3]: 1.5 fold
Fold change of post exposure PQIP to untreated, MAP2K6 expression [3]: 0.87 fold
Fold change of post exposure PQIP to untreated, MT1E expression [3]: 12.5 fold
Fold change of post exposure PQIP to untreated, MT1F expression [3]: 10.8 fold
Fold change of post exposure PQIP to untreated, MT1G expression [3]: 4.5 fold
Fold change of post exposure PQIP to untreated, MT1H expression [3]: 11.0 fold
Fold change of post exposure PQIP to untreated, MT1M expression [3]: 15.2 fold
Fold change of post exposure PQIP to untreated, MT1X expression [3]: 16.0 fold
Fold change of post exposure PQIP to untreated, MT2A expression [3]: 8.1 fold
phosphorylation of Akt ([4]; HCT116): inhibits
phosphorylation of Akt ([4]; HT29): inhibits
phosphorylation of S6 ribosomal protein ([5]; HCT116): inhibits
phosphorylation of S6 ribosomal protein ([5]; HT29): inhibits
IGF-2 induced phosphorylation of p42/44 MAPK ([6]; HCT116): not in resistant HCT116
IGF-2 induced phosphorylation of p42/44 MAPK ([6]; HT29): inhibited
